Measurements reported in patent US20250345295A1, “LMK235 COMPOSITIONS AND METHODS” (UNM Rainforest Innovations, priority 2024, published 2025).
Entries after “also recorded” stand apart in the source; their conditions may differ.

Tested on: mice with trigeminal nerve injury
Test: Light/dark place preference test (anxiety-like behavior)
Type: in vivo, mouse
Conditions: nerve-injured mice, weeks 6-9 post surgery
Description: Anxiety-related behaviors were assessed in a manner typical in the literature—i.e., once at the end in week 8 since anxiety develops only in mice 6-8 weeks after persisting nerve injury (e.g., Lyons et al., Neuroscience 2015 Jun. 4; 295:126-138). The effects of HDACi on chronic craniofacial pain-related behaviors were assessed using light/dark place preference test and zero maze.
Animals were exposed to acoustic startle (5 minutes) immediately prior to placement in the light/dark place preference box as in a previous study (Lyons et al., Neuroscience 2015 Jun. 4; 295:126-138). Mils acoustic startle stress just prior to the test induces panic anxiety-like behavior with increased time and entries in the open arms compared to controls (de Paula HMG, Hoshino K, Behav Brain Res 2003 Dec. 17; 147(1-2):157-162; de Paula HMG, Hoshino K, Physiol Behav 2004 January; 80(4):459-464; Kontinen et al., Pain 1999 March;80(1-2):341-346). In the light/dark box place preference task (total time 10 minutes) anxiety-like behaviors were recorded as: (i) total time spent in the light area, (ii) number of entries into the light area, (iii) number of rearing events/exploratory behavior, (iv) latency of the first transition into the light chamber, and (v) latency of first re-entry (transition) back into the dark chamber.

Cc1cc(C)cc(C(=O)NOCCCCCC(=O)NO)c1 [LMK235, N-[[6-(Hydroxyamino)-6-oxohexyl]oxy]-3,5-dimethyl-benzamide]
anxiety-like behaviors, light/dark box test: reduction of anxiety measures; also recorded: inhibited the development of anxiety-like behaviors
